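Five compound concentrations were applied to cells in 96-well plates for 48 hours; endpoints were derived by simple linear interpolation of the resulting dose-response curve. At the GI50, growth is halved. TGI denotes the concentration required for complete inhibition of growth.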
How the values were obtained:
Test in all cases: growth of human tumour cells (NCI), 48 h
[1] = tested on: MOLT-4 leukemia
[2] = tested on: OVCAR-4 ovarian
[3] = tested on: PC-3 prostate
[4] = tested on: NCI-H226 lung
[5] = tested on: SK-MEL-2 melanoma
[6] = tested on: K-562 leukemia
[7] = tested on: SF-539 CNS
[8] = tested on: MCF7 breast
[9] = tested on: 786-0 renal
[10] = tested on: MALME-3M melanoma
[11] = tested on: NCI-H522 lung
[12] = tested on: OVCAR-3 ovarian
[13] = tested on: COLO 205 colon
[14] = tested on: ACHN renal
[15] = tested on: MDA-MB-231 breast
[16] = tested on: HCC-2998 colon
[17] = tested on: HL-60(TB) leukemia
[18] = tested on: SF-295 CNS
[19] = tested on: RPMI-8226 leukemia
[20] = tested on: DU-145 prostate
[21] = tested on: UO-31 renal
[22] = tested on: HS 578T breast
[23] = tested on: HOP-92 NSCLC
[24] = tested on: SK-MEL-28 melanoma
[25] = tested on: NCI/ADR-RES ovarian
[26] = tested on: HCT-116 colon
[27] = tested on: EKVX NSCLC
[28] = tested on: UACC-257 melanoma
[29] = tested on: HT29 colon
[30] = tested on: CCRF-CEM leukemia
[31] = tested on: SN12C renal
[32] = tested on: TK-10 renal
[33] = tested on: UACC-62 melanoma
[34] = tested on: SNB-19 CNS
[35] = tested on: A498 renal
[36] = tested on: IGROV1 ovarian
[37] = tested on: U251 CNS
[38] = tested on: OVCAR-5 ovarian
[39] = tested on: T-47D breast
[40] = tested on: SK-MEL-5 melanoma
[41] = tested on: NCI-H460 lung
[42] = tested on: RXF 393 renal
[43] = tested on: HOP-62 NSCLC
[44] = tested on: LOX IMVI melanoma
[45] = tested on: M14 melanoma
[46] = tested on: NCI-H23 lung
[47] = tested on: HCT-15 colon
[48] = tested on: SK-OV-3 ovarian
[49] = tested on: SNB-75 CNS
[50] = tested on: SR leukemia
[51] = tested on: A549 NSCLC
[52] = tested on: SF-268 CNS
[53] = tested on: KM12 colon
[54] = tested on: OVCAR-8 ovarian
[55] = tested on: BT-549 breast
[56] = tested on: SW-620 colon
[57] = tested on: MDA-MB-435

In the case of `O=C(N/N=C/c1c(Cl)cccc1Cl)c1cccnc1Nc1cccc(C(F)(F)F)c1`, the GI50 [1] is reported as 0.942 µM, the TGI [1] is reported as greater than 100 µM and the GI50 [2] is reported as 0.941 µM. The TGI [2] was 48.3 µM, the GI50 [3] was 2.79 µM and the TGI [3] was greater than 100 µM. For the same compound, the GI50 [4] was 2.44 µM, the TGI [4] was 21.9 µM and the GI50 [5] was 11.1 µM. It also gave a TGI [5] of 56.1 µM, a GI50 [6] of 3.57 µM and a TGI [6] greater than 100 µM. The GI50 [7] was 4.28 µM, the TGI [7] was 19.5 µM and the GI50 [8] was 3.92 µM. The TGI [8] was greater than 100 µM, the GI50 [9] was 3.87 µM and the TGI [9] was 27.9 µM. It also gave a GI50 [10] of 2.95 µM, a TGI [10] of 10.8 µM and a GI50 [11] of 2.55 µM. The TGI [11] was 15 µM, the GI50 [12] was 2.72 µM and the TGI [12] was 27.5 µM. It also gave a GI50 [13] of 2.9 µM, a TGI [13] of 37.9 µM and a GI50 [14] of 3.04 µM. For the same compound, the TGI [14] was 20.8 µM, the GI50 [15] was 5.16 µM and the TGI [15] was 72 µM. For the same compound, the GI50 [16] was 3.86 µM, the TGI [16] was greater than 100 µM and the GI50 [17] was 3.15 µM. For the same compound, the TGI [17] was 34.1 µM, the GI50 [18] was 1.78 µM and the TGI [18] was 14 µM. It also gave a GI50 [19] of 0.717 µM, a TGI [19] of 4.88 µM and a GI50 [20] of 5.35 µM. It also gave a TGI [20] greater than 100 µM, a GI50 [21] of 3 µM and a TGI [21] greater than 100 µM. It also gave a GI50 [22] of 3.59 µM, a TGI [22] of 26.2 µM and a GI50 [23] of 4.01 µM. It also gave a TGI [23] of 25.5 µM, a GI50 [24] of 3.03 µM and a TGI [24] of 40.4 µM. It also gave a GI50 [25] of 1.7 µM, a TGI [25] of 44.6 µM and a GI50 [26] of 1.53 µM. For the same compound, the TGI [26] was 18.1 µM, the GI50 [27] was 2.25 µM and the TGI [27] was 27.4 µM. The GI50 [28] was 4.31 µM, the TGI [28] was greater than 100 µM and the GI50 [29] was 4.7 µM. The TGI [29] was greater than 100 µM, the GI50 [30] was 0.323 µM and the TGI [30] was 10.8 µM. The GI50 [31] was 2.58 µM, the TGI [31] was 98.9 µM and the GI50 [32] was 4.4 µM. For the same compound, the TGI [32] was 79.2 µM, the GI50 [33] was 2.46 µM and the TGI [33] was 9.64 µM. For the same compound, the GI50 [34] was 4.62 µM, the TGI [34] was greater than 100 µM and the GI50 [35] was 3.13 µM. It also gave a TGI [35] of 32.8 µM, a GI50 [36] of 2.41 µM and a TGI [36] of 54.9 µM. For the same compound, the GI50 [37] was 1.47 µM, the TGI [37] was 11.6 µM and the GI50 [38] was 4.43 µM. For the same compound, the TGI [38] was 47 µM, the GI50 [39] was 2.65 µM and the TGI [39] was 71 µM. The GI50 [40] was 2.34 µM, the TGI [40] was 6.52 µM and the GI50 [41] was 2.04 µM. It also gave a TGI [41] of 35.3 µM, a GI50 [42] of 6.53 µM and a TGI [42] of 38.6 µM. For the same compound, the GI50 [43] was 3.97 µM, the TGI [43] was 20.8 µM and the GI50 [44] was 1.83 µM. For the same compound, the TGI [44] was 19 µM, the GI50 [45] was 2.72 µM and the TGI [45] was 17.1 µM. The GI50 [46] was 6.35 µM, the TGI [46] was greater than 100 µM and the GI50 [47] was 0.668 µM. It also gave a TGI [47] greater than 100 µM, a GI50 [48] of 3.77 µM and a TGI [48] of 30.2 µM. The GI50 [49] was 3.9 µM, the TGI [49] was 24.8 µM and the GI50 [50] was 2.57 µM. It also gave a TGI [50] of 28.5 µM, a GI50 [51] of 4.69 µM and a TGI [51] greater than 100 µM. The GI50 [52] was 2.18 µM, the TGI [52] was greater than 100 µM and the GI50 [53] was 3.24 µM. It also gave a TGI [53] of 57.3 µM, a GI50 [54] of 3.49 µM and a TGI [54] greater than 100 µM. For the same compound, the GI50 [55] was 3.28 µM, the TGI [55] was 55.5 µM and the GI50 [56] was 1.66 µM. The TGI [56] was greater than 100 µM, the GI50 [57] was 3.8 µM and the TGI [57] was greater than 100 µM.

Source: PubChem BioAssay (NCI)
